Values joined by “and” are separate entries in the source; they are usually repeats but may differ in a detail not shown here. Equal entries are not always repeated. Where two headings read alike, the source gives them in different places.
Tests used:
Assay in all cases: qHTS cell viability (CellTiter-Glo, 72 h; primary and follow-up small molecule screen)
Format in all cases: cell-based, human
[1] = tested on: MCC13 cells (VN-MCC)
[2] = tested on: MCC26 cells (VN-MCC)
[3] = tested on: UISO cells (VN-MCC)
[4] = tested on: WAGA cells (VP-MCC)
[5] = tested on: MKL-1 cells (VP-MCC)
[6] = tested on: MKL-2 cells (VP-MCC)
[7] = follow-up screen, MCC13, replicate 1
[8] = follow-up screen, MCC13, replicate 2
[9] = follow-up screen, MCC13, replicate 3
[10] = follow-up screen, MCC26, replicate 1
[11] = follow-up screen, MCC26, replicate 2
[12] = follow-up screen, MCC26, replicate 3
[13] = follow-up screen, UISO, replicate 1
[14] = follow-up screen, UISO, replicate 2
[15] = follow-up screen, UISO, replicate 3
[16] = follow-up screen, WAGA, replicate 1
[17] = follow-up screen, WAGA, replicate 2
[18] = follow-up screen, WAGA, replicate 3
[19] = follow-up screen, MKL-1, replicate 1
[20] = follow-up screen, MKL-1, replicate 2
[21] = follow-up screen, MKL-1, replicate 3
[22] = follow-up screen, MKL-2, replicate 1
[23] = follow-up screen, MKL-2, replicate 2
[24] = follow-up screen, MKL-2, replicate 3

Row | SMILES | Area under the dose-response curve (AUC) MCC13 Replicate 1 [1, 7] | Area under the dose-response curve (AUC) MCC13 Replicate 2 [1, 8] | Area under the dose-response curve (AUC) MCC13 Replicate 3 [1, 9] | Area under the dose-response curve (AUC) MCC26 Replicate 1 [2, 10] | Area under the dose-response curve (AUC) MCC26 Replicate 2 [2, 11] | Area under the dose-response curve (AUC) MCC26 Replicate 3 [2, 12] | Area under the dose-response curve (AUC) UISO Replicate 1 [3, 13] | Area under the dose-response curve (AUC) UISO Replicate 2 [3, 14] | Area under the dose-response curve (AUC) UISO Replicate 3 [3, 15] | Area under the dose-response curve (AUC) WAGA Replicate 1 [4, 16] | Area under the dose-response curve (AUC) WAGA Replicate 2 [4, 17] | Area under the dose-response curve (AUC) WAGA Replicate 3 [4, 18] | Area under the dose-response curve (AUC) MKL-1 Replicate 1 [5, 19] | Area under the dose-response curve (AUC) MKL-1 Replicate 2 [5, 20] | Area under the dose-response curve (AUC) MKL-1 Replicate 3 [5, 21] | Area under the dose-response curve (AUC) MKL-2 Replicate 1 [6, 22] | Area under the dose-response curve (AUC) MKL-2 Replicate 2 [6, 23] | Area under the dose-response curve (AUC) MKL-2 Replicate 3 [6, 24] | other results
1 | COc1ccc2cc3[n+](cc2c1OC)CCc1cc2c(cc1-3)OCO2 [Berberine] | 398.2 | 416.5 | 443.1 | 384.2 | 304.3 | 382.1 | 307.5 | 333.0 | 307.0 | 314.6 | 371.3 | 307.0 | 311.8 | 310.8 | 306.9 | 282.0 | 271.5 | 295.9 | 
2 | C[C@H]1CCC/C=C/[C@@H]2C[C@H](OC(=O)CN(C)C)C[C@H]2[C@H](O)/C=C/C(=O)O1 [Breflate] |  |  |  |  |  |  |  |  |  |  |  |  |  |  |  |  |  |  | Area under the dose-response curve (AUC) MCC13 Replicate 1 [1]: 301.4; Area under the dose-response curve (AUC) MCC13 Replicate 2 [1]: 313.0; Area under the dose-response curve (AUC) MCC13 Replicate 3 [1]: 291.5; Area under the dose-response curve (AUC) MCC26 Replicate 1 [2]: 324.6; Area under the dose-response curve (AUC) MCC26 Replicate 2 [2]: 334.5; Area under the dose-response curve (AUC) MCC26 Replicate 3 [2]: 272.7; Area under the dose-response curve (AUC) UISO Replicate 1 [3]: 287.6; Area under the dose-response curve (AUC) UISO Replicate 2 [3]: 297.1; Area under the dose-response curve (AUC) UISO Replicate 3 [3]: 295.8; Area under the dose-response curve (AUC) WAGA Replicate 1 [4]: 298.7; Area under the dose-response curve (AUC) WAGA Replicate 2 [4]: 274.6; Area under the dose-response curve (AUC) WAGA Replicate 3 [4]: 278.0; Area under the dose-response curve (AUC) MKL-1 Replicate 1 [5]: 284.7; Area under the dose-response curve (AUC) MKL-1 Replicate 2 [5]: 297.0; Area under the dose-response curve (AUC) MKL-1 Replicate 3 [5]: 286.8; Area under the dose-response curve (AUC) MKL-2 Replicate 1 [6]: 314.0; Area under the dose-response curve (AUC) MKL-2 Replicate 2 [6]: 292.1; Area under the dose-response curve (AUC) MKL-2 Replicate 3 [6]: 266.7
3 | C[C@]12CC[C@H](O)C[C@H]1CC[C@@H]1[C@@H]2CC[C@]2(C)[C@@H](c3ccc(=O)oc3)CC[C@]12O [Bufalin] |  |  |  |  |  |  |  |  |  |  |  |  |  |  |  |  |  |  | Area under the dose-response curve (AUC) [1]: 246.2 and 243.7 and 237.7; Area under the dose-response curve (AUC) [2]: 270.7 and 302.4 and 244.7; Area under the dose-response curve (AUC) [3]: 235.9 and 234.7 and 201.8; Area under the dose-response curve (AUC) [4]: 311.5 and 289.3 and 286.6; Area under the dose-response curve (AUC) [5]: 317.9 and 310.4 and 298.2; Area under the dose-response curve (AUC) [6]: 316.9 and 287.6 and 264.0
4 | CCCNC(=O)[C@H]1O[C@@H]1C(=O)N[C@H](C(=O)N1CCC[C@H]1C(=O)OC)C(C)CC (stereo partly drawn) [CA-074 Me] |  |  |  |  |  |  |  |  |  |  |  |  |  |  |  |  |  |  | Area under the dose-response curve (AUC) MCC13 Replicate 1 [1]: 449.3; Area under the dose-response curve (AUC) MCC13 Replicate 2 [1]: 470.8; Area under the dose-response curve (AUC) MCC13 Replicate 3 [1]: 430.6; Area under the dose-response curve (AUC) MCC26 Replicate 1 [2]: 401.2; Area under the dose-response curve (AUC) MCC26 Replicate 2 [2]: 420.5; Area under the dose-response curve (AUC) MCC26 Replicate 3 [2]: 371.8; Area under the dose-response curve (AUC) UISO Replicate 1 [3]: 368.5; Area under the dose-response curve (AUC) UISO Replicate 2 [3]: 355.5; Area under the dose-response curve (AUC) UISO Replicate 3 [3]: 334.3; Area under the dose-response curve (AUC) WAGA Replicate 1 [4]: 383.1; Area under the dose-response curve (AUC) WAGA Replicate 2 [4]: 375.3; Area under the dose-response curve (AUC) WAGA Replicate 3 [4]: 378.5; Area under the dose-response curve (AUC) MKL-1 Replicate 1 [5]: 343.4; Area under the dose-response curve (AUC) MKL-1 Replicate 2 [5]: 329.7; Area under the dose-response curve (AUC) MKL-1 Replicate 3 [5]: 317.3; Area under the dose-response curve (AUC) MKL-2 Replicate 1 [6]: 305.9; Area under the dose-response curve (AUC) MKL-2 Replicate 2 [6]: 306.4; Area under the dose-response curve (AUC) MKL-2 Replicate 3 [6]: 348.6
5 | Cc1nc2ccc(-n3ncc(C(=O)c4cc5ccccc5[nH]4)c3N)cc2[nH]1 [CH5183284 (Debio-1347)] |  |  |  |  |  |  |  |  |  |  |  |  |  |  |  |  |  |  | Area under the dose-response curve (AUC) [1]: 509.3 and 491.7 and 491.1; Area under the dose-response curve (AUC) [2]: 405.6 and 395.0 and 403.7; Area under the dose-response curve (AUC) [3]: 433.7 and 424.4 and 430.0; Area under the dose-response curve (AUC) [4]: 493.1 and 498.3 and 457.6; Area under the dose-response curve (AUC) [5]: 508.7 and 488.2 and 500.7; Area under the dose-response curve (AUC) [6]: 485.9 and 459.2 and 468.2
6 | CC[C@@]1(O)C(=O)OCc2c1cc1n(c2=O)Cc2cc3ccccc3nc2-1 [Camptothecin] | 224.5 | 221.7 | 254.2 | 203.3 | 207.4 | 184.6 | 151.6 | 176.2 | 177.2 | 164.4 | 180.7 | 159.3 | 168.7 | 185.9 | 170.7 | 160.6 | 161.3 | 224.5 | 
7 | COCc1c(C(C)C)nc(C(C)C)c(/C=C/[C@@H](O)C[C@@H](O)CC(=O)O)c1-c1ccc(F)cc1 [Cerivastatin sodium] | 319.0 | 316.5 | 320.7 | 312.2 | 285.4 | 322.6 | 255.3 | 261.7 | 240.8 | 385.6 | 358.6 | 363.6 | 337.1 | 326.8 | 335.0 | 362.8 | 331.4 | 356.5 | 
8 | COc1ccc2c(c[n+](C)c3c4cc5c(cc4ccc23)OCO5)c1OC [Chelerythrine chloride] | 404.1 | 410.9 | 433.8 | 384.2 | 379.8 | 390.1 | 417.2 | 419.6 | 390.8 | 387.5 | 415.9 | 372.6 | 325.9 | 295.9 | 331.6 | 317.6 | 350.5 | 338.8 | 

Source: paper PMC11822212, “High-throughput screening identifies Aurora kinase B as a critical therapeutic target for Merkel cell carcinoma” (Nature Communications, 2025)
